Test results as given in PubChem BioAssay AID1845202 (Molecular Pharmacology Branch, DTP, NCI, 2023).

System: DMS 114 tumor spheroids, viability % test/control
Assay: Anticancer human tumor DMS 114 cell line growth inhibition;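 also: spheroids exposed to compounds for 7 days before read-out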;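 as to viability, T/C: luminescence used as a proxy for viable cells; 100% = DMSO vehicle control viability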
Details: spheroids with HUVEC and MSC; for IC50: curve of first compound; for viability, T/C: stronger effect = lower value
From the text: Multicellular complex tumor spheroid response to DNA repair inhibitors in combination with DNA-damaging drugs
This study explores the anticancer activities of DNA-damaging drugs and inhibitors of DNA damage repair, both as single agents and in combinations. Complex tumor spheroids comprised of malignant cells, endothelial cells and mesenchymal stem cells served as an in vitro model for human solid tumors. This model system incorporates physiologically relevant features and patient-derived or established malignant cell lines with clinically relevant genetic alterations from many tumor types. Twenty-six patient-derived or established malignant cell lines were evaluated representing sarcoma, melanoma, small cell lung cancer (SCLC), non-small cell lung cancer (NSCLC), as well as bladder, ovarian and pancreatic cancers. The concentration ranges selected for each drug and investigational agent were based upon clinically achievable concentrations if the clinical Cmax of the agent was known.
Compounds. The drugs and compounds olaparib (NSC753686), talazoparib (NSC767125), berzosertib (NSC777718), elimusertib (NSC800525), nedisertib (NSC802822), VX-984 (NSC792969), AZD-1390 (NSC803789), temozolomide (NSC362856), topotecan (NSC609699), trabectedin (NSC813783), staurosporine (NSC755774), and gemcitabine (NSC613327) were obtained from the National Cancer Institute (NCI) Developmental Therapeutics Program Chemical Repository. The FDA-approved anticancer drug set is available from the Developmental Therapeutics Program at https://dtp.cancer.gov/organization/dscb/obtaining/available_plates.htm. […] The stock solutions were prepared in dimethyl sulfoxide (DMSO, Sigma-Aldrich, St. Louis, MO, cat. D2650) at 400-fold the tested concentration and stored at -70 degrees C. Prior to their use, the stock solutions were diluted in fresh medium and the final DMSO concentration in the assay was 0.25% (v/v). All drugs and investigational agents were tested over a range starting from a high concentration at or near the clinical Cmax and decreasing in half-log increments. If the clinical Cmax for an agent had not been determined, the highest concentration tested was 10 microM.
Cell Lines. The patient-derived cancer cell (PDC) lines: 156681-154-R-J1-PDC, 283228-195-R-J1-PDC, 287954-098-R-J1-PDC, 292921-168-R-J2-PDC, 349418-098-R-PDC, 425362-245-T-J1-PDC, 556581-035-R-J1-PDC, and BL0293-F563-PDC were received from the NCI Patient-Derived Models Repository (PDMR, https://pdmr.cancer.gov). The established cell lines HS-SY-2 (RRID:CVCL_8719), MPNST, and SYO-1 (RRID:CVCL_7146) were obtained from the Sloan Kettering Institute. The alveolar soft parts sarcoma cell line ASPS-1 (RRID:CVCL_S738) was established at the NCI and grown from internal seed stocks. The following established cell lines were purchased from the American Type Culture Collection (ATCC, Manassas, VA): G-401 (ATCC, cat. CRL-1441, RRID:CVCL_0270), SW982 (ATCC, cat. HTB-93, RRID:CVCL_1734), VA-ES-BJ (ATCC, cat. CRL-2138, RRID:CVCL_1785), NCI-H719 (ATCC, cat. CRL-5837, RRID:CVCL_1582), NCI-H196 (ATCC, cat. CRL-5823, RRID:CVCL_1509), NCI-H841 (ATCC, cat. CRL-5845, RRID:CVCL_1595), NCI-H1618 (ATCC, cat. CRL-5879, RRID:CVCL_1480), NCI-H1876 (ATCC, cat. CRL-5902, RRID:CVCL_1503), DMS 114 (ATCC, cat. CRL-2066; RRID:CVCL_1174), NCI-H211 (ATCC, cat. CRL-5824; RRID:CVCL_1529), and SW 1271 (ATCC, cat. CRL-2177, RRID:CVCL_1716). The small cell lung cancer cell line COR-L88 was purchased from Sigma-Aldrich (cat. 92031917-1VL, RRID:CVCL_1141). The non-small cell lung cancer cell lines NCI-H226 (RRID:CVCL_1544) and NCI-H322M (RRID:CVCL_1557) were established at the NCI and grown from internal seed stocks. Pooled donor human umbilical vein endothelial cells (HUVEC, Lonza, cat. CC-2519) and human mesenchymal stem cells (hMSC, Lonza, cat. PT-2501) were purchased from Lonza (Walkersville, MD).
Cell Culture. All cells were maintained in an incubator at 37 degrees C and 5% CO2 with 95% humidity. […]

[1] = second compound 0.003 µM, first compound 0.00949 µM
[2] = second compound 0.003 µM, first compound 0.03 µM
[3] = second compound 0.003 µM, first compound 0.0949 µM
[4] = second compound 0.003 µM, first compound 0.3 µM
[5] = second compound 0.003 µM, first compound 0.949 µM
[6] = second compound 0.003 µM, first compound 3 µM
[7] = second compound 0.00949 µM, first compound 0.00949 µM
[8] = second compound 0.00949 µM, first compound 0.03 µM
[9] = second compound 0.00949 µM, first compound 0.0949 µM
[10] = second compound 0.00949 µM, first compound 0.3 µM
[11] = second compound 0.00949 µM, first compound 0.949 µM
[12] = second compound 0.00949 µM, first compound 3 µM
[13] = second compound 0.03 µM, first compound 0.00949 µM
[14] = second compound 0.03 µM, first compound 0.03 µM
[15] = second compound 0.03 µM, first compound 0.0949 µM
[16] = second compound 0.03 µM, first compound 0.3 µM
[17] = second compound 0.03 µM, first compound 0.949 µM
[18] = second compound 0.03 µM, first compound 3 µM
[19] = second compound 0.0949 µM, first compound 0.00949 µM
[20] = second compound 0.0949 µM, first compound 0.03 µM
[21] = second compound 0.0949 µM, first compound 0.0949 µM
[22] = second compound 0.0949 µM, first compound 0.3 µM
[23] = second compound 0.0949 µM, first compound 0.949 µM
[24] = second compound 0.0949 µM, first compound 3 µM
[25] = second compound 0.3 µM, first compound 0.00949 µM
[26] = second compound 0.3 µM, first compound 0.03 µM
[27] = second compound 0.3 µM, first compound 0.0949 µM
[28] = second compound 0.3 µM, first compound 0.3 µM
[29] = second compound 0.3 µM, first compound 0.949 µM
[30] = second compound 0.3 µM, first compound 3 µM

Row | SMILES | IC50 (second compound 0.003 µM) | IC50 (second compound 0.00949 µM) | IC50 (second compound 0.03 µM) | IC50 (second compound 0.0949 µM) | IC50 (second compound 0.3 µM) | viability, T/C [1] | viability, T/C [2] | viability, T/C [3] | viability, T/C [4] | viability, T/C [5] | viability, T/C [6] | viability, T/C [7] | viability, T/C [8] | viability, T/C [9] | viability, T/C [10] | viability, T/C [11] | viability, T/C [12] | viability, T/C [13] | viability, T/C [14] | viability, T/C [15] | further results
1 | CNCc1ccc(-c2cc(-c3nc(-c4ccc(S(=O)(=O)C(C)C)cc4)cnc3N)on2)cc1 + CC[C@@]1(O)C(=O)OCc2c1cc1n(c2=O)Cc2cc3c(CN(C)C)c(O)ccc3nc2-1 | 60 nM | 25 nM | < 9.49 nM | < 9.49 nM | < 9.49 nM | 98.5% | 68.3% | 37.7% | 17.1% | 2.3% | 0.16% | 80.3% | 43% | 23.5% | 14.3% | 3.11% | 0.14% | 31.3% | 26.6% | 23.7% | viability, T/C [16]: 11.9%; viability, T/C [17]: 1.54%; viability, T/C [18]: 0.13%; viability, T/C [19]: 16.2%; viability, T/C [20]: 17%; viability, T/C [21]: 12.5%; viability, T/C [22]: 9.06%; viability, T/C [23]: 1.27%; viability, T/C [24]: 0.12%; viability, T/C [25]: 8.52%; viability, T/C [26]: 8.82%; viability, T/C [27]: 9.74%; viability, T/C [28]: 6.32%; viability, T/C [29]: 0.95%; viability, T/C [30]: 0.2%
2 | Cc1sc2c(c1C)C(c1ccc(Cl)cc1)=NC(CC(=O)Nc1ccc(O)cc1)c1nnc(C)n1-2 (stereo not given) + CC[C@@]1(O)C(=O)OCc2c1cc1n(c2=O)Cc2cc3c(CN(C)C)c(O)ccc3nc2-1 | 89.3 nM | 56.4 nM | < 9.49 nM | < 9.49 nM | < 9.49 nM | 96.7% | 97.2% | 45.5% | 18.9% | 7.67% | 4.78% | 85% | 67.4% | 35.9% | 12.1% | 5.26% | 3.47% | 24.8% | 19.4% | 13.1% | viability, T/C [16]: 8.01%; viability, T/C [17]: 3.14%; viability, T/C [18]: 1.45%; viability, T/C [19]: 11.7%; viability, T/C [20]: 9.99%; viability, T/C [21]: 5.31%; viability, T/C [22]: 2.68%; viability, T/C [23]: 1.52%; viability, T/C [24]: 0.93%; viability, T/C [25]: 5.77%; viability, T/C [26]: 4.7%; viability, T/C [27]: 3.42%; viability, T/C [28]: 1.6%; viability, T/C [29]: 0.9%; viability, T/C [30]: 0.73%
